In this assay the test system is Calf thymus DNA. The assay is described as follows: Binding affinity to calf thymus DNA at 0.033 to 0.995 ligand to DNA ratio by spectrophotometer analysis. In kind it is nucleic-acid assay. As to conditions: Bos taurus.

Activity calls are given as the source filed them. The calls are words filed in the database; no cut-off is given here.

With `COc1cc2cc3c4cc(OC)c(OC)cc4cc[n+]3c(C)c2cc1OC`, the result was Active. `CCCc1c2cc(OC)c(OC)cc2cc2c3cc(OC)c(OC)cc3cc[n+]12`: the result was Active.

These data come from ChEMBL document CHEMBL3244158, “Dimerization of coralyne and its propyl analogue and their association with DNA” (J Med Chem, 1979).
